Data set [1] concerns young tomato plants (13 cm, 3 leaves, JUMBO hybrid). Put plainly: Phytotoxicity on young tomato plants. The class given is in vivo. The procedure: (§1) For both types of crop, 4 treatments were performed on 20 plants: • untreated control • 360 kg/ha of DMDS • 540 kg/ha of DMDS • 720 kg/ha of DMDS
(§2) Five days after the treatment, the young plants are transplanted into pots 20 cm in diameter and 35 cm in height.
(§3) The observations relating to the number of leaves per plant and the visual state of the plants are carried out 15 and 41 days after the transplantation: […]

In data set [2] the test system is young cucumber plants (9 cm, 2 leaves, ARIS hybrid). Put plainly: Phytotoxicity on young cucumber plants. It counts as in vivo. The procedure:
as §1, §2, §3

Data set [3] deals with termite (Reticulitermes santonensis). In words: Insecticidal in vitro fumigation test on termites. It counts as in vivo. The settings on record: 24 hours of fumigation, mortality counted at the end of 48 hours; 25° C. The procedure: Dead wood infested with termites was collected from the soil on ground occupied by a colony. This dead wood serves as breeding medium. The breeding is maintained at a constant 25° C. and a day/night 12:12 alternation.
The insects are removed in an amount of 2 soldiers per 28 workers.
The tests are carried out in hermetically closed glass jars having a volume of 3 L and containing the insects.
The product to be tested is introduced through a hole 2 mm in diameter with the aid of a micropipette and deposited on a filter paper (2×5 cm: Whatman No. 1) suspended at the centre of the jar where it migrates by capillarity and vaporizes rapidly. The hole is hermetically closed again as quickly as possible.
The jars are placed for 24 hours in an incubator under the same breeding conditions.
At the end of 24 hours, after a few instants of aeration, a first count is made and then the insects are placed again under breeding conditions for another 24 hours. The counting of the mortality is therefore carried out at the end of 48 hours. […] Each test is carried out on a population of 30 to 50 insects and is accompanied by a control without treatment. Several repeats are carried out with doses close to the LC50.

The subject of another data set is a large number of fungi. The note with it: as reported in U.S. Pat. No. 2,917,429; cited from earlier work.
The mark [4] stands for this setting: 360, 540, 720 kg/ha, 15 and 41 days after transplantation.
Setting [5] is: 360 kg/ha DMDS (formulation A), after 15 days.
[6] abbreviates: 360 kg/ha DMDS (formulation A), after 41 days.
Where [7] appears, read: 540 kg/ha DMDS (formulation A), after 15 days.
Where [8] appears, read: 540 kg/ha DMDS (formulation A), after 41 days.
[9] abbreviates: 720 kg/ha DMDS (formulation A), after 15 days.
[10] abbreviates: 720 kg/ha DMDS (formulation A), after 41 days.
[11] abbreviates: regardless of the concentration tested (360-720 kg/ha).

Regarding `CSSC` [DMDS, dimethyl disulphide], the “Visual symptom of phytotoxicity” value in data set [1] (setting [4]) and in data set [2] (setting [4]) was “no visual symptom of phytotoxicity” each time. Also, the “Average number of leaves per plant” value was determined as 5.3 in data set [1] (setting [5]); 9.6 in data set [1] (setting [6]); 5.3 in data set [1] (setting [7]); 9.4 in data set [1] (setting [8]); 5.7 in data set [1] (setting [9]); 9.8 in data set [1] (setting [10]). The “Average number of leaves per plant” value in data set [2] (setting [5]) was determined as 5.3; in data set [2] (setting [6]), 9.8; in data set [2] (setting [7]), 5.7; in data set [2] (setting [8]) it was 9.7; in data set [2] (setting [9]), 5.7; in data set [2] (setting [10]) it was 9.9. The “Difference in number of leaves between untreated control and treated plants” value in data set [1] (setting [11]) and in data set [2] (setting [11]) was “no significant difference” in each case. Moreover, the “LC50 (Probits method)” value in data set [3] came out at 0.095 g × 24 h/m^3. The “Activity on a large number of fungi” value in the data set on a large number of fungi is listed as “zero activity”.

The values are drawn from patent publication US8663669B2, “Pesticide treatment of soils or substrates with sulphur compounds” (Arkema France, priority 2002, dated 2014).
